# Columns and labels:
# COX-2 = biological target: T1, COX-2 (Homo sapiens, UniProt P35354); assay: In vitro COX-2 inhibition, colorimetric screening assay kit; settings: for (SI) in vitro COX-2 selectivity index: COX-1 IC50/COX-2 IC50; for HillSlope (best-fit value), COX-2 inhibition / LogIC50 (best-fit value), COX-2 inhibition: supplementary dose-response curve
# T1 sequence (P35354 18-604): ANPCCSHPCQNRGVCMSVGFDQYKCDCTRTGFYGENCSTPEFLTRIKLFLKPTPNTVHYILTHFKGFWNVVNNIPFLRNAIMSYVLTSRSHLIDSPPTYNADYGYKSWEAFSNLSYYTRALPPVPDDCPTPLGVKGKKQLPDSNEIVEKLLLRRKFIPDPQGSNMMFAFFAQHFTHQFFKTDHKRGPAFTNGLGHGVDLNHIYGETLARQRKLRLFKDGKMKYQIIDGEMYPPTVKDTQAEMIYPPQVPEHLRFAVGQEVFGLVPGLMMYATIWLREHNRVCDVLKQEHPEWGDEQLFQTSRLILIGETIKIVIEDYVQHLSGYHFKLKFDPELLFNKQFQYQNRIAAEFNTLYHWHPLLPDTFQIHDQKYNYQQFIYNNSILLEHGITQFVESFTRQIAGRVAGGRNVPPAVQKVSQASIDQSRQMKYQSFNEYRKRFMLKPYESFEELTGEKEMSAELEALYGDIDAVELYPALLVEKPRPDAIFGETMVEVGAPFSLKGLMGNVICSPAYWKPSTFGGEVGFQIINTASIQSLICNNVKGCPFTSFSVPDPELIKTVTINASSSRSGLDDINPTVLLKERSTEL
# Experimental: (§1) This assay examined the inhibitory potency of the target structures towardboth COX isoforms via colorimetric screening assay kit (Cayman Chemical, MI, United States) based on the directions provided by the manufacturer. ELISA reader Thermo Scientific Multiskan® EX (Thermo scientific, United States) was used. […] Serial dilutions of CLX, as a reference standard, and tested compounds at concentrations of 1000, 300, 100, 30, 10, 3, 1, and 0.30 nM were used in the assay. IC50 of the tested compounds were determined using three different experiments. The selectivity (SI) of each ompound was measured using the COX-2/COX-1 ratio, which compares the IC50 of COX-2 and COX-1.
# COX-1 = biological target: T2, COX-1 (Ovis aries, UniProt P05979); assay: In vitro COX-1 inhibition, colorimetric screening assay kit; settings: for HillSlope (best-fit value), COX-1 inhibition / LogIC50 (best-fit value), COX-1 inhibition: supplementary dose-response curve
# T2 sequence (P05979 25-600): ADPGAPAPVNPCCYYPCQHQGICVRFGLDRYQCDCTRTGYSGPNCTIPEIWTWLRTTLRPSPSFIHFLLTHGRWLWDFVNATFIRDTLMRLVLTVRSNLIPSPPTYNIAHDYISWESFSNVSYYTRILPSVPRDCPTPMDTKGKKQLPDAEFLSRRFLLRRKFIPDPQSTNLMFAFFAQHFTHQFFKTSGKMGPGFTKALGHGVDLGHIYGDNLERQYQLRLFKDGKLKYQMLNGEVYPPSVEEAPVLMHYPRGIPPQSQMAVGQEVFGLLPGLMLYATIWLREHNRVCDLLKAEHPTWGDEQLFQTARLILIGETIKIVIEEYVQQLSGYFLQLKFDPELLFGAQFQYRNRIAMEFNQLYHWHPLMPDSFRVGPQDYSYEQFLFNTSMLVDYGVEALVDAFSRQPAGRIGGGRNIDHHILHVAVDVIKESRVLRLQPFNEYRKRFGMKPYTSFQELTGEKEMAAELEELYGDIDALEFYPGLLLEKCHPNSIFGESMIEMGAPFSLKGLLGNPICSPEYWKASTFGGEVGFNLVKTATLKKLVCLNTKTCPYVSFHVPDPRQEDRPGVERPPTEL
# Experimental: as §1
SMILES,melting point,IC50 (COX-2),(SI) in vitro COX-2 selectivity index (COX-2),"HillSlope (best-fit value), COX-2 inhibition (COX-2)","LogIC50 (best-fit value), COX-2 inhibition (COX-2)",IC50 (COX-1),"HillSlope (best-fit value), COX-1 inhibition (COX-1)","LogIC50 (best-fit value), COX-1 inhibition (COX-1)"
"Cc1c(NC(=O)CSc2nnc(-c3ccc([N+](=O)[O-])cc3)o2)c(=O)n(-c2ccccc2)n1C [4d, N-(1,5-Dimethyl-3-oxo-2-phenyl-2,3-dihydro-1H-pyrazol-4-yl)-2-((5–(4-nitrophenyl)-1,3,4-oxadiazol-2-yl)thio)acetamide]",214 to 216 °C,65.5 ± 2.23 nM,0.77,-0.3340,1.817 Log (nM),50.8 ± 2.18 nM,-0.3754,1.705 Log (nM)
"Cc1ccc(-c2nc(SCC(=O)Nc3c(C)n(C)n(-c4ccccc4)c3=O)[nH]c(=O)c2C#N)cc1 [8a, 2-((5-Cyano-6-oxo-4-(p-tolyl)-1,6-dihydropyrimidin-2-yl)thio)-N-(1,5-dimethyl-3-oxo-2-phenyl-2,3-dihydro-1H-pyrazol-4-yl)acetamide]",> 300 °C,88.6 ± 2.19 nM,1.57,-0.3794,1.948 Log (nM),139 ± 2.31 nM,-0.3685,2.142 Log (nM)
"Cc1c(NC(=O)CSc2nnc(NC(=O)Nc3ccc(Cl)cc3)s2)c(=O)n(-c2ccccc2)n1C [6d, 2-((5–(3-(4-Chlorophenyl)ureido)-1,3,4-thiadiazol-2-yl)thio)-N-(1,5-dimethyl-3-oxo-2-phenyl-2,3-dihydro-1H-pyrazol-4-yl)acetamide]",248 to 250 °C,169 ± 2.34 nM,0.63,-0.3273,2.228 Log (nM),106 ± 2.16 nM,-0.3655,2.025 Log (nM)
"Cc1c(NC(=O)CSc2nnc(NC(=O)Nc3ccccc3)s2)c(=O)n(-c2ccccc2)n1C [6a, N-(1,5-Dimethyl-3-oxo-2-phenyl-2,3-dihydro-1H-pyrazol-4-yl)-2-((5–(3-phenylureido)-1,3,4-thiadiazol-2-yl)thio)acetamide]",254 to 256 °C,155 ± 2.07 nM,0.85,-0.3826,2.190 Log (nM),132 ± 2.36 nM,-0.3215,2.119 Log (nM)
"Cc1c(NC(=O)CSc2nc(-c3ccc(Br)cc3)c(C#N)c(=O)[nH]2)c(=O)n(-c2ccccc2)n1C [8c, 2-((4–(4-Bromophenyl)-5-cyano-6-oxo-1,6-dihydropyrimidin-2-yl)thio)-N-(1,5-dimethyl-3-oxo-2-phenyl-2,3-dihydro-1H-pyrazol-4-yl)acetamide]",243 to 245 °C,130 ± 2.1 nM,1.26,-0.3953,2.113 Log (nM),164 ± 2.39 nM,-0.2705,2.214 Log (nM)
"Cc1ccc(-c2nnc(SCC(=O)Nc3c(C)n(C)n(-c4ccccc4)c3=O)o2)cc1 [4a, N-(1,5-Dimethyl-3-oxo-2-phenyl-2,3-dihydro-1H-pyrazol-4-yl)-2-((5-(p-tolyl)-1,3,4-oxadiazol-2-yl)thio)acetamide]",234 to 236 °C,86.9 ± 2.19 nM,2.05,-0.3184,1.939 Log (nM),178 ± 2.15 nM,-0.3744,2.252 Log (nM)
"Cc1c(NC(=O)CSc2nc(-c3ccc(Cl)cc3)c(C#N)c(=O)[nH]2)c(=O)n(-c2ccccc2)n1C [8b, 2-((4–(4-Chlorophenyl)-5-cyano-6-oxo-1,6-dihydropyrimidin-2-yl)thio)-N-(1,5-dimethyl-3-oxo-2-phenyl-2,3-dihydro-1H-pyrazol-4-yl)acetamide]",239 to 241 °C,120 ± 2.06 nM,1.74,-0.3650,2.079 Log (nM),209 ± 2.21 nM,-0.3071,2.320 Log (nM)
"COc1ccc(-c2nc(SCC(=O)Nc3c(C)n(C)n(-c4ccccc4)c3=O)[nH]c(=O)c2C#N)cc1 [8d, 2-((5-Cyano-4–(4-methoxyphenyl)-6-oxo-1,6-dihydropyrimidin-2-yl)thio)-N-(1,5-dimethyl-3-oxo-2-phenyl-2,3-dihydro-1H-pyrazol-4-yl)acetamide]",166 to 168 °C,68.7 ± 2.19 nM,1.33,-0.3543,1.837 Log (nM),91.6 ± 2.15 nM,-0.3099,1.962 Log (nM)
"Cc1ccc(NC(=O)Nc2nnc(SCC(=O)Nc3c(C)n(C)n(-c4ccccc4)c3=O)s2)cc1 [6b, N-(1,5-Dimethyl-3-oxo-2-phenyl-2,3-dihydro-1H-pyrazol-4-yl)-2-((5–(3-(p-tolyl)ureido)-1,3,4-thiadiazol-2-yl)thio)acetamide]",253 to 255 °C,104 ± 2.25 nM,0.79,-0.2866,2.016 Log (nM),82.3 ± 2.28 nM,-0.3398,1.915 Log (nM)
"COc1ccc(NC(=O)Nc2nnc(SCC(=O)Nc3c(C)n(C)n(-c4ccccc4)c3=O)s2)cc1 [6c, N-(1,5-Dimethyl-3-oxo-2-phenyl-2,3-dihydro-1H-pyrazol-4-yl)-2-((5–(3-(4-methoxyphenyl)ureido)-1,3,4-thiadiazol-2-yl)thio)acetamide]",250 to 252 °C,86.1 ± 2.26 nM,3.28,-0.3558,1.935 Log (nM),282.1 ± 2.34 nM,-0.2958,2.450 Log (nM)

# Source: publication PMC9848286, “Design, synthesis, and biological investigation of oxadiazolyl, thiadiazolyl, and pyrimidinyl linked antipyrine derivatives as potential non-acidic anti-inflammatory agents” (Journal of Enzyme Inhibition and Medicinal Chemistry, 2023)
